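Interpolation was linear, between the two tested concentrations surrounding the appropriate level; five concentrations were tested over 48 hours in 96-well plates. Here, GI50 denotes the concentration required for 50% inhibition of growth.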 Calls of active or inactive are those of the source. Cut-off read from the data, not from the text of the source: active = GI50 up to about 1.1 µM and inactive = higher.
Legend:
Assay in all cases: inhibition of tumour cell growth, NCI panel, 48 h
DMS-114 = system: DMS-114
RXF 631 = system: RXF 631
DLD-1 = system: DLD-1
XF498 = system: XF498
SNB-78 = system: SNB-78
KM-20L2 = system: KM-20L2
HOP-18 = system: HOP-18
LXFL 529 = system: LXFL 529
DMS-273 = system: DMS-273

Measured: GI50

O=C(/C=C/c1ccco1)N1CCN(Cc2ccccc2)CC1
inactive: DMS-114 > 100 µM | RXF 631 > 100 µM | DLD-1 > 100 µM | XF498 > 100 µM | SNB-78 > 100 µM | KM-20L2 > 100 µM | HOP-18 > 100 µM | LXFL 529 > 100 µM | DMS-273 > 100 µM

N#CCCN(C1=NN(C(=O)CC(=O)Nc2ccc(Cl)cc2)C(c2ccccc2)C1)c1ccc(Cl)cc1 (stereo not drawn)
inactive: DMS-114 > 100 µM | RXF 631 > 100 µM | DLD-1 > 100 µM | XF498 > 100 µM | SNB-78 40.4 µM | KM-20L2 > 100 µM | HOP-18 > 100 µM | LXFL 529 > 100 µM | DMS-273 > 100 µM

From ChEMBL document CHEMBL1201862, “PubChem BioAssay data set” (2004)
